Source: patent US20250188093A1, “TYK2 INHIBITORS AND USES THEREOF” (Alumis Inc., priority 2022, published 2025)

What was measured:
[1] = target: T1, human TYK2 (JH2domain-pseudokinase) (Homo sapiens, UniProt P29597); assay: TYK2 JH2 domain binding assay (KINOMEscan)
T1 construct: host or cells: transiently transfected HEK293 cells; unpurified extract
Description: Binding constants for the compounds described herein against the JH2 domain were determined by the following protocol for a KINOMEscan® assay (DiscoveRx). A fusion protein of a partial length construct of human TYK2 (JH2domain-pseudokinase) (amino acids G556 to D888 based on reference sequence NP_003322.3) and the DNA binding domain of NFkB was expressed in transiently transfected HEK293 cells. From these HEK 293 cells, extracts were prepared in M-PER extraction buffer (Pierce) in the presence of Protease Inhibitor Cocktail Complete (Roche) and Phosphatase Inhibitor Cocktail Set II (Merck) per manufacturers' instructions. The TYK2 (JH2domain-pseudokinase) fusion protein was labeled with a chimeric double-stranded DNA tag containing the NFkB binding site fused to an amplicon for qPCR readout, which was added directly to the expression extract (the final concentration of DNA-tag in the binding reaction is 0.1 nM).
Streptavidin-coated magnetic beads (Dynal M280) were treated with a biotinylated small molecule ligand for 30 minutes at room temperature to generate affinity resins the binding assays. The liganded beads were blocked with excess biotin and washed with blocking buffer (SeaBlock (Pierce), 1% BSA, 0.05% Tween 20, 1 mM DTT) to remove unbound ligand and to reduce nonspecific binding.
The binding reaction was assembled by combining 16 μl of DNA-tagged kinase extract, 3.8 μl liganded affinity beads, and 0.18 μl test compound (PBS/0.05% Tween 20/10 mM DTT/0.1% BSA/2 μg/ml sonicated salmon sperm DNA)]. Extracts were used directly in binding assays without any enzyme purification steps at a ≥10,000-fold overall stock dilution (final DNA-tagged enzyme concentration <0.1 nM). Extracts were loaded with DNA-tag and diluted into the binding reaction in a two-step process. First extracts were diluted 1:100 in 1× binding buffer (PBS/0.05% Tween 20/10 mM DTT/0.1% BSA/2 μg/ml sonicated salmon sperm DNA) containing 10 nM DNA-tag. This dilution was allowed to equilibrate at room temperature for 15 minutes and then subsequently diluted 1:100 in 1× binding buffer. Test compounds were prepared as 111× stocks in 100% DMSO. Kds were determined using an 11-point 3-fold compound dilution series with three DMSO control points. All compounds for Kd measurements were distributed by acoustic transfer (non-contact dispensing) in 100% DMSO. The compounds were then diluted directly into the assays such that the final concentration of DMSO was 0.9%. All reactions were performed in polypropylene 384-well plates. Each was a final volume of 0.02 mL. Assays were incubated with shaking for 1 hour at room temperature. Then the beads were pelleted and washed with wash buffer (1×PBS, 0.05% Tween 20) to remove displaced kinase and test compound. The washed based were re-suspended in elution buffer (1×PBS, 0.05% Tween 20, 0.5 μM non-biotinylated affinity ligand) and incubated at room temperature with shaking for 30 minutes. The kinase concentration in the eluates was measured by qPCR. qPCR reactions were assembled by adding 2.5 μL of kinase eluate to 7.5 μL of qPCR master mix containing 0.15 μM amplicon primers and 0.15 μM amplicon probe. The qPCR protocol consisted of a 10 minute hot start at 95° C., followed by 35 cycles of 95° C. for 15 seconds, 60° C. for 1 minute.
Test compounds were prepared as 111× stocks in 100% DMSO. Kds were determined using an 11-point 3-fold compound dilution series with three DMSO control points. All compounds for Kd measurements were distributed by acoustic transfer (non-contact dispensing) in 100% DMSO. The compounds were then diluted directly into the assays such that the final concentration of DMSO was 0.9%. The Kds were determined using a compound top concentration of 30,000 nM. Kd measurements were performed in duplicate.
Binding constants (Kds) were calculated with a standard dose-response curve using the Hill equation: […]
The Hill Slope was set to −1. […]

TYK2 JH1 = target: T2, TYK2 JH1 (Homo sapiens, UniProt P29597); assay: KINOMEscan binding, TYK2 JH1
T2 construct: TYK2 JH1
T2 sequence (P29597 897-1176 limits assumed): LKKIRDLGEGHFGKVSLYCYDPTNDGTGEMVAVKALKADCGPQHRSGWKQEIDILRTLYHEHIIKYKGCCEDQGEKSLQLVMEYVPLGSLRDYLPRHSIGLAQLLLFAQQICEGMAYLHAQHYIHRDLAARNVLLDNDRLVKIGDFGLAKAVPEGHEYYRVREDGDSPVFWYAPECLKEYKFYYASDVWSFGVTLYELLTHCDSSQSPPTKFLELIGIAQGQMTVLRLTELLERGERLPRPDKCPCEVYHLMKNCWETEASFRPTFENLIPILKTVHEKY

JAK3 JH1 = target: T3, JAK3 JH1 (Homo sapiens, UniProt P52333); assay: KINOMEscan binding, JAK3 JH1
T3 construct: JAK3 JH1
T3 sequence (P52333 822-1111 limits assumed): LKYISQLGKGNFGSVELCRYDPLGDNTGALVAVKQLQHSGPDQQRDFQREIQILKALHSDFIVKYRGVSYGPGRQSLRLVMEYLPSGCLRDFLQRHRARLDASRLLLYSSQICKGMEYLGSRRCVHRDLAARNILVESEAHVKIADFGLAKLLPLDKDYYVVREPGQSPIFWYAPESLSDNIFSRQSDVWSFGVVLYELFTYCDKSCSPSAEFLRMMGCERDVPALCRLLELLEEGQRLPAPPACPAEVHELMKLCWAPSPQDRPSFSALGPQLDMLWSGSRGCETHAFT

JAK2 JH2 = target: T4, JAK2 JH2 (Homo sapiens, UniProt O60674); assay: KINOMEscan binding, JAK2 JH2
T4 construct: JAK2 JH2
T4 sequence (O60674 545-809 limits assumed): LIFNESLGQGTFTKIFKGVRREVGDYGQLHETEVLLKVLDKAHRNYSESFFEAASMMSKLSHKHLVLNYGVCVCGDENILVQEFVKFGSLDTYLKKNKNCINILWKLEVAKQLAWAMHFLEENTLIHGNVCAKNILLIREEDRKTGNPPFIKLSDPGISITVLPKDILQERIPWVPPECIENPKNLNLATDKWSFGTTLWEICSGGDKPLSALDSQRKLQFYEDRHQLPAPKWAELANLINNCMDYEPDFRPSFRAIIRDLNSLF

JAK2 JH1 = target: T5, JAK2 JH1 (Homo sapiens, UniProt O60674); assay: KINOMEscan binding, JAK2 JH1
T5 construct: JAK2 JH1
T5 sequence (O60674 849-1124 limits assumed): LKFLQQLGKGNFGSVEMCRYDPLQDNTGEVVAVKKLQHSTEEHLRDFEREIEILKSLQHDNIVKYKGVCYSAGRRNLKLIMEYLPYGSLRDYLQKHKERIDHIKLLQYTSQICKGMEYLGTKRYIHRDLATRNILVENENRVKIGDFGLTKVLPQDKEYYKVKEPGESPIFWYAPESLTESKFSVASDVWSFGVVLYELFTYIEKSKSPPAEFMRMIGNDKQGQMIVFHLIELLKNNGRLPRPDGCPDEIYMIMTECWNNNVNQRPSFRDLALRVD

JAK1 JH2 = target: T6, JAK1 JH2 (Homo sapiens, UniProt P23458); assay: KINOMEscan binding, JAK1 JH2
T6 construct: JAK1 JH2
T6 sequence (P23458 583-855 limits assumed): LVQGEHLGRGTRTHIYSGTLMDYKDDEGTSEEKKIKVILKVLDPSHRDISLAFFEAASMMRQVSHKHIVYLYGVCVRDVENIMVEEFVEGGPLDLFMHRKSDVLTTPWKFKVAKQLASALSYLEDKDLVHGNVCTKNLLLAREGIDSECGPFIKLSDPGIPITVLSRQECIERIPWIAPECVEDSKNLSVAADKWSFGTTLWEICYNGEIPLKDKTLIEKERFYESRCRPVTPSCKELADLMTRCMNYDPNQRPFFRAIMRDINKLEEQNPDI

JAK1 JH1 = target: T7, JAK1 JH1 (Homo sapiens, UniProt P23458); assay: KINOMEscan binding, JAK1 JH1
T7 construct: JAK1 JH1
T7 sequence (P23458 875-1153 limits assumed): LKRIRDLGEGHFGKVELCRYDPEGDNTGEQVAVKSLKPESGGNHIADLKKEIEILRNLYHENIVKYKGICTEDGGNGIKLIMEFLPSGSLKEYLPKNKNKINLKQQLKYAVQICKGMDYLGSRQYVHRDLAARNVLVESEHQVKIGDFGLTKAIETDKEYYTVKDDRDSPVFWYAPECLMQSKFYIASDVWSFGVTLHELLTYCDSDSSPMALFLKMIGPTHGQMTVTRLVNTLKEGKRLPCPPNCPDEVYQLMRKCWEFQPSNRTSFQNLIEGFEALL

IFNa, PBMCs, p-STAT3 = assay: IFNa induced p-STAT3 in PBMCs; assay type: cell-based; conditions: PBMC; human PBMCs, IFNa stimulation
IFNa, PBMCs, p-STAT5 = assay: INFα induced pSTAT5 in human PBMC; assay type: cell-based; conditions: 0.25 h, IFNa 5000 units/ml, 15 minutes
Description: Fresh Human PBMCs were resuspended in RPMI 1640 medium with 10% FBS. Cells were seeded in a round bottom 96-well plate at the concentration of 200,000 cells/well. A 10-point dilution series of test compound (top dose 10 uM, 1:5 dilution) was added to the well using the liquid dispenser (Tecan D300e) and incubated for 1 hour at 37 C. Then human INFα recombinant protein (R&D Systems) was added to the well at the final concentration of 5000 units/ml and incubated for 15 minutes at 37 C. Cell lysates were prepared and analyzed by Phospho STAT5 (Tyr693) Kit (Meso Scale Discovery) following manufacturer's protocol.
For calculation of the inhibition rate, the relative pSTAT5 signal of each well=pSTAT5 signal of each well−the average pSTAT5 signal of baseline.
The inhibition %=(the average pSTAT5 signal of INFα treatment wells−the relative of pSTAT5 signal in each compound containing well)/the average pSTAT5 signal of INFα treatment wells*100%
The curve was plotted as the inhibition % (y-axis) vs. compounds concentration (x-axis) and is fitted with log (inhibitor) vs. normalized response—Variable slope by GraphPad Prism7.0.

T1 sequence (P29597 556-888): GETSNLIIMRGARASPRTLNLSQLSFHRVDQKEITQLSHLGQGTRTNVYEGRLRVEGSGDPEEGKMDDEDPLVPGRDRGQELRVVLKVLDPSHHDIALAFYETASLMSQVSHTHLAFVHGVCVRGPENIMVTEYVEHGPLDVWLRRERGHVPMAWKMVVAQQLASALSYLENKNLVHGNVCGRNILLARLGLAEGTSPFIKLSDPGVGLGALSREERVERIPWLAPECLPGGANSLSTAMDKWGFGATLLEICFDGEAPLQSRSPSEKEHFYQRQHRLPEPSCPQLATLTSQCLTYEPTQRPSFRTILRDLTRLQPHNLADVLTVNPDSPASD

| Compound | Kd [1] | Kd (TYK2 JH1) | Kd (JAK3 JH1) | Kd (JAK2 JH2) | Kd (JAK2 JH1) | Kd (JAK1 JH2) | Kd (JAK1 JH1) | IC50 (IFNa, PBMCs, p-STAT3) | IC50 (IFNa, PBMCs, p-STAT5) |
| --- | --- | --- | --- | --- | --- | --- | --- | --- | --- |
| CNc1cc2nn3c(cnc13)C(=O)N[C@@H]1CCC[C@@H]1OCc1cc(c3c(c1)nnn3C)N2 [Compound 6, (6^1S,6^2R,E)-3^1-Methyl-1^8-(methylamino)-3^1H-5-oxa-2,7-diaza-1(6,3),3(7,5)-diimidazo[1,2-b]pyridazina-6(1,2)-cyclopentanacyclooctaphan-8-one] | < 10 nM | ≥ 30 µM | ≥ 30 µM | 1 to 10 µM | ≥ 30 µM | 10 to 1000 nM | ≥ 30 µM |  |  |
| [2H]C1([2H])O[C@@H]2CCC[C@H]2NC(=O)c2cnc3c(NC)cc(nn23)Nc2cc1cc1c2nnn1C [Compound 50] | < 10 nM | ≥ 30 µM | 1 to 10 µM | 1 to 10 µM | 10 to 30 µM | 1000 to 10000 nM | ≥ 30 µM |  |  |
| CNc1cc2nn3c(cnc13)C(=O)N[C@@H]1CCC[C@@H]1OCc1cc(c3nnn(C)c3c1)N2 [Compound 5] | < 10 nM | ≥ 30 µM | ≥ 30 µM | 1 to 10 µM | ≥ 30 µM | 10 to 1000 nM | ≥ 30 µM |  |  |
| CNc1cc2nn3c(cnc13)C(=O)N[C@@H]1CCC[C@H]1OCc1cc(c3nn(C)nc3c1)N2 [Compound 4, (1^5E,3^4E,6^1R,6^2R)-3^2-Methyl-1^8-(methylamino)-3^2H-5-oxa-2,7-diaza-1(6,3),3(4,6)-diimidazo[1,2-b]pyridazina-6(1,2)-cyclopentanacyclooctaphan-8-one] | < 10 nM | 10 to 30 µM | 10 to 30 µM | 1 to 10 µM | 1 to 10 µM | 10 to 1000 nM | ≥ 30 µM | < 100 nM | < 100 nM |
| CNc1cc2nc3c(cnn13)C(=O)N1CC[C@H](C1)OCc1cc(c3nnn(C)c3c1)N2 [Compound 44] | < 10 nM | ≥ 30 µM |  |  |  | 1000 to 10000 nM |  |  |  |
| CNc1cc2nn3c(cnc13)C(=O)N[C@@H]1CCC[C@H]1OCc1cc(c3c(c1)nnn3C)N2 [Compound 3] | < 10 nM | ≥ 30 µM | ≥ 30 µM | ≥ 30 µM | ≥ 30 µM | 10000 to 30000 nM | ≥ 30 µM |  |  |
| CNc1cc2nn3c(cnc13)C(=O)N[C@@H]1CCC[C@H]1OCc1cc(c3nnn(C)c3c1)N2 [Compound 49] | < 10 nM | ≥ 30 µM |  |  |  | 1000 to 10000 nM |  |  |  |
| CNc1cc2nn3c(cnc13)Nc1cc(cc3c1ncn3C)COC1CCCC1NC2=O (stereo not shown) [Compound 12, (6^1R,6^2R,E)-3^1-Methyl-1^8-(methylamino)-3^1H-5-oxa-2,7-diaza-1(6,3)-imidazo[1,2-b]pyridazina-3(4,6)-benzo[d]imidazola-6(1,2)-cyclopentanacyclooctaphan-8-one] | < 10 nM | ≥ 30 µM |  |  |  | 10000 to 30000 nM |  |  |  |
| CNc1cc2nc3c(cnn13)C(=O)N[C@@H]1CCC[C@H]1OCc1cc(c3nn(C)nc3c1)N2 [Compound 8] | < 10 nM | 10 to 30 µM |  |  |  | 10 to 1000 nM |  |  |  |
| CNc1cc2nc3c(cnn13)C(=O)N[C@@H]1CCC[C@@H]1OCc1cc(c3nnn(C)c3c1)N2 [Compound 9] | < 10 nM | ≥ 30 µM |  |  |  | 10 to 1000 nM |  |  |  |
| CNc1cc2nc3c(cnn13)C(=O)N1CC[C@@H](C1)OCc1cc(c3nnn(C)c3c1)N2 [Compound 45] | < 10 nM | ≥ 30 µM |  |  |  | 1000 to 10000 nM |  |  |  |
| (1^3E,1^4E,6^1R,6^2R)-3^1-Methyl-1^7-(methylamino)-3^1H-5-oxa-2,7-diaza-1(5,3),3(4,6)-dipyrazolo[1,5-a]pyrimidina-6(1,2)-cyclopentanacyclooctaphan-8-one [Compound 2] | < 10 nM | ≥ 30 µM |  |  |  | 1000 to 10000 nM |  |  |  |
| [2H]C1([2H])O[C@H]2CCC[C@H]2NC(=O)c2cnc3c(NC)cc(nn23)Nc2cc1cc1c2nnn1C [Compound 51] | < 10 nM | ≥ 30 µM | 10 to 30 µM | 1 to 10 µM | ≥ 30 µM | 10 to 1000 nM | ≥ 30 µM |  |  |
| (1^3E,1^4E,3^4E,6^1R,6^2R)-3^2-Methyl-1^7-(methylamino)-3^2H-5-oxa-2,7-diaza-1(5,3),3(4,6)-dipyrazolo[1,5-a]pyrimidina-6(1,2)-cyclopentanacyclooctaphan-8-one [Compound 10] | < 10 nM | ≥ 30 µM |  |  |  | 1000 to 10000 nM |  |  |  |
| CNc1cc2nn3c(cnc13)C(=O)N[C@@H]1CCC[C@H]1OCc1cc(c3nnn(C)c3c1)N2 [Compound 1] | < 10 nM |  | 10 to 30 µM | 1 to 10 µM | ≥ 30 µM |  | ≥ 30 µM | < 100 nM | < 100 nM |
| (1^3E,1^4E,6^1S,6^2R)-3^1-Methyl-1^7-(methylamino)-3^1H-5-oxa-2,7-diaza-1(5,3),3(4,6)-dipyrazolo[1,5-a]pyrimidina-6(1,2)-cyclopentanacyclooctaphan-8-one [Compound 11] | < 10 nM | ≥ 30 µM |  |  |  | 10 to 1000 nM |  |  |  |
| CNc1cc2nn3c(cnc13)C(=O)N[C@@H]1CCC[C@@H]1OCc1cc(c3nn(C)nc3c1)N2 [Compound 7] | < 10 nM | ≥ 30 µM | ≥ 30 µM | 10 to 30 µM | ≥ 30 µM | 10 to 1000 nM | ≥ 30 µM |  |  |
